Reference: patent publication US20070155746A1, “NOVEL SUBSTITUTED PYRIDINYLOXY AND PYRIMIDINYLOXY AMIDES USEFUL AS INHIBITORS OF PROTEIN KINASES” (KALYPSYS, INC., priority 2005, published 2007)

Experiments:
Assay type in all cases: biochemical
[1] = molecular target: T1, human B-Raf protein kinase (Homo sapiens, UniProt P15056); assay: In vitro B-Raf/Mek1 composite kinase assay
T1 construct: GST (N); purchased Upstate Inc. 14-530 (B-Raf); 14-420 (Mek1)
Description: In Vitro B-Raf/Mek1 Composite Kinase Assay
2.5 μl of B-Raf kinase buffer (20 mM MOPS [pH 7.2], 25 mM sodium glycerophosphate, 2 mM EGTA [pH 8.0], 1 mM sodium orthovanadate, 1 mM dithiothreitol, 10 mM MgCl2, 0.03% Brij-35, 0.3 mg/ml bovine serum albumin) containing lng of recombinant, N-terminal GST-tagged human B-Raf protein kinase (Δ1-415, Upstate Inc., cat. #14-530) is dispensed to wells of a 1536 multi-well white solid plate. 60 nl of 100× concentration of test compound in DMSO is dispensed to the well by passive pin transfer and incubated for 15 minutes at room temperature (approx. 22° C.). […] The assay plates are sealed and maintained in a humidified environment. After 2 hours, 2.5 μl of PKLight protein kinase assay reagent (Cambrex, cat. #LT07-501) is dispensed. After an additional 5 minute incubation at room temperature, luminescence activity is measured on a Molecular Devices Analyst multi-mode plate reader or other suitable plate reader. Kinase inhibition results in less ATP depletion, and therefore increased luminescence signal. Negative control activity is measured with DMSO lacking any test compound. The positive control is [N-(3-trifluoromethyl-4-chlorophenyl)-N′-(4-(2-methylcarbamoyl-pyridin-4-yl)oxyphenyl)urea], aka Bay 43-9006. Efficacy is measured as a percentage of positive control activity.

[2] = molecular target: T2, VEGFR2 kinase (Homo sapiens, UniProt P35968); assay: In vitro VEGFR2 kinase assay
T2 construct: purchased Invitrogen Inc PV3660
Description: (§1) In Vitro VEGFR2 and PDGFRP Kinase Assays
(§2) 2.5 μl of ADP Quest assay buffer (DiscoverX Inc., cat. #90-0071) containing 20 ng VEGFR2 kinase (Invitrogen Inc, cat. #PV3660) or 25 ng PDGFRβ kinase (Invitrogen Inc., cat. #P3082) is dispensed to wells of a 1536 multi-well, black solid plate. 60 nl of 100× concentration of test compound in DMSO is dispensed to the well by passive pin transfer and incubated for 10 minutes at room temperature (approx. 22° C.). 2.5 μl of ADP Quest assay buffer containing 0.25 μg of poly Glu:Tyr (4:1) substrate peptide (Upstate Inc., cat. #12-440) and 60 μM ATP is then dispensed and the kinase reaction allowed to incubate at 30° C. for 2 hours. The assay plates are sealed and maintained in a humidified environment. After the 2 hour incubation, 2 μl of ADP Quest assay reagent A, followed by 2 μl of assay reagent B, is added. After an additional 30 minute incubation at room temperature, fluorescence intensity is measured on a Molecular Devices Aquest multi-mode plate reader or other suitable plate reader (fluorescence excitation filter: 530/25 [Peak(nm)/FWHM passband(nm)]; dichroic beamsplitter: 561 nm longpass; fluorescence emission filter: 580/10 [Peak(nm)/FWHM passband(nm)]. The assay measures the conversion of a non-fluoresecent molecule to fluorescent resorufin, which correlates with kinase activity. Negative control activity is measured with DMSO lacking any test compound. The positive control is [N-(3-trifluoromethyl-4-chlorophenyl)-N′-(4-(2-methylcarbamoyl-pyridin-4-yl)oxyphenyl)urea], aka Bay 43-9006. Efficacy is measured as a percentage of positive control activity.

[3] = molecular target: T3, PDGFRβ kinase (Homo sapiens, UniProt P09619); assay: In vitro PDGFRβ kinase assay
T3 construct: purchased Invitrogen Inc. P3082
Description: as §1, §2

T1 sequence (P15056 416-766): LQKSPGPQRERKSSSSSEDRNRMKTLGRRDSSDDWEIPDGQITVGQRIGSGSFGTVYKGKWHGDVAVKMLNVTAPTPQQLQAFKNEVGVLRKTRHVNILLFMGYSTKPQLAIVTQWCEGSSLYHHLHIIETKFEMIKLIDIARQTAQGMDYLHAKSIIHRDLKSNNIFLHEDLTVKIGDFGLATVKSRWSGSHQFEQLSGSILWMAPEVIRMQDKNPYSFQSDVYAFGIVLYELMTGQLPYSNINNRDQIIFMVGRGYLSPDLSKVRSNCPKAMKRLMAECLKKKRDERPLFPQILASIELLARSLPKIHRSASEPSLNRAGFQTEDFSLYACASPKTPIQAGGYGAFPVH
T2 sequence (P35968 20-1356): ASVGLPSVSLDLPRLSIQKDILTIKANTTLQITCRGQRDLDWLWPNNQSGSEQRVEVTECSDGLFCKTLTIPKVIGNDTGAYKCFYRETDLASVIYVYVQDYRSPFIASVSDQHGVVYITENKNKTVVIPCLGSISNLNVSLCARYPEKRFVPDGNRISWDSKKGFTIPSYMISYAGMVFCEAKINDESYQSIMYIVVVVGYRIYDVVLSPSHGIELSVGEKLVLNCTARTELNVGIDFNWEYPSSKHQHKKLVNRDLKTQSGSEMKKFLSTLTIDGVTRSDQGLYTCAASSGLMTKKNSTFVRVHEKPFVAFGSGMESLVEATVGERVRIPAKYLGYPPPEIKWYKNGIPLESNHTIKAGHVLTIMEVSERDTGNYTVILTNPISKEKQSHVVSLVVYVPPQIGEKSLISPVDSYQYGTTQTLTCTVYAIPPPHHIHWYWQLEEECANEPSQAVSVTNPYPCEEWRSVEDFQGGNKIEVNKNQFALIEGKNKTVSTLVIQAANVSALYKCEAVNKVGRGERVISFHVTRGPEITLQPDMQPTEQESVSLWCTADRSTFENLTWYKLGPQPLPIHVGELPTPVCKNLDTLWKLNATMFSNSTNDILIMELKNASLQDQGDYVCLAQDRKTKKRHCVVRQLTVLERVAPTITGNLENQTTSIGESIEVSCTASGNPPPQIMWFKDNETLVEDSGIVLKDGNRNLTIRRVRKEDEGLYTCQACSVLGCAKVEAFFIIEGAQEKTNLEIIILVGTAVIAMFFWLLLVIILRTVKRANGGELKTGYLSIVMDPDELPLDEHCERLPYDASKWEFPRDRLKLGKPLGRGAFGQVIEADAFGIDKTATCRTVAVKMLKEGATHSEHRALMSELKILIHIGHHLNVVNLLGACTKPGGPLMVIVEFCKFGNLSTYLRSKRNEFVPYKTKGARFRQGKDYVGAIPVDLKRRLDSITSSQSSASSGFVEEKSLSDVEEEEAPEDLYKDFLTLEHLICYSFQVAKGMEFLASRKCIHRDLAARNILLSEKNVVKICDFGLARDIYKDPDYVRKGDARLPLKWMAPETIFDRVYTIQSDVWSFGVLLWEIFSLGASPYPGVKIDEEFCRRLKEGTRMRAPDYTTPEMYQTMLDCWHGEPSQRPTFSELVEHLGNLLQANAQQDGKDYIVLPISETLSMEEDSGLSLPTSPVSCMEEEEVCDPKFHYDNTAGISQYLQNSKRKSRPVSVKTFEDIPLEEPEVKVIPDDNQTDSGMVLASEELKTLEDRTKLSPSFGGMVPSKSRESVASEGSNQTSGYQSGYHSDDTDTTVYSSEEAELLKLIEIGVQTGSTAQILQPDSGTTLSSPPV
T3 sequence (P09619 33-1106): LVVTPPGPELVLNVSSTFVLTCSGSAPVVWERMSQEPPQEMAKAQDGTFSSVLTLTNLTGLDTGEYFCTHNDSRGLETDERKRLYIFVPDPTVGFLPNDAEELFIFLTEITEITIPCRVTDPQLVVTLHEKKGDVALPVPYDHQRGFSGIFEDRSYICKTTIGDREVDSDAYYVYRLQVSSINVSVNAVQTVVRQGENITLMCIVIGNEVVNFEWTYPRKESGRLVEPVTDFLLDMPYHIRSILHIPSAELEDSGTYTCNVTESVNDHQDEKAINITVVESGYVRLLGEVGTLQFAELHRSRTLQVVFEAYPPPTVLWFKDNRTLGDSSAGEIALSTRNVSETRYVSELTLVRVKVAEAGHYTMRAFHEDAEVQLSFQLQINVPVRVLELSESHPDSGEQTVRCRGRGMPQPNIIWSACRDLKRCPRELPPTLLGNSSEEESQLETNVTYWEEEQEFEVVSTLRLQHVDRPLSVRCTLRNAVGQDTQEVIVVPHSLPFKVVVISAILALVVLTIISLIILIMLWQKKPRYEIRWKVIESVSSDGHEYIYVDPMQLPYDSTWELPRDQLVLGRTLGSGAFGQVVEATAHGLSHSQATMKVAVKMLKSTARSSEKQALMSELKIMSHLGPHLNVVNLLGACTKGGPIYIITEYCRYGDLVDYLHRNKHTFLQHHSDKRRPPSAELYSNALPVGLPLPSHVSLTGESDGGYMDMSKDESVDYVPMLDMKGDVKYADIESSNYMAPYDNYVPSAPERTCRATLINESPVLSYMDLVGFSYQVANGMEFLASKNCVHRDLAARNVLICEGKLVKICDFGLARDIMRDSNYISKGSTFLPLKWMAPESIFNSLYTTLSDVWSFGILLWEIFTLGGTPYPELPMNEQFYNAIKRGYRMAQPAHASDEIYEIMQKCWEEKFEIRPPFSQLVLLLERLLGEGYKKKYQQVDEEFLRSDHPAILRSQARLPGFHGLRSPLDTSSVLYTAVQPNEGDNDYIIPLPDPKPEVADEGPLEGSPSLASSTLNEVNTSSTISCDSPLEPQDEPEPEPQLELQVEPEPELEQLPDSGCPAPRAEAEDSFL

| SMILES | IC50 [1] | IC50 [2] | IC50 [3] |
| --- | --- | --- | --- |
| Cn1cc(-c2cc(Oc3ccc(NC(=O)c4ccc(Cl)c(C(F)(F)F)c4)cc3)ccn2)cn1 [Example 22, 4-Chloro-N-(4-(2-(1-methyl-1H-pyrazol-4-yl)pyridin-4-yloxy)phenyl)-3-(trifluoromethyl)benzamide] | ≤ 10 µM | ≤ 10 µM | ≤ 10 µM |
| Cn1cc(-c2cc(Oc3cccc(NC(=O)c4ccc5[nH]ccc5c4)c3)ccn2)cn1 [Example 70, N-(3-(2-(1-Methyl-1H-pyrazol-4-yl)pyridin-4-yloxy)phenyl)-1H-indole-5-carboxamide] | ≤ 10 µM | ≤ 10 µM | > 10 µM |
| CC(C#N)c1cccc(C(=O)Nc2cccc(Oc3ccnc(-c4cnn(C)c4)c3)c2)c1 (racemic) [Example 48, (±)-3-(1-Cyanoethyl)-N-(3-(2-(1-methyl-1H-pyrazol-4-yl)pyridin-4-yloxy)phenyl)benzamide] | > 10 µM | > 10 µM | > 10 µM |
| Cn1cc(-c2cc(Oc3cccc(NC(=O)c4cccc(-n5ccnc5)c4)c3)ccn2)cn1 [Example 37, 3-(1H-Imidazol-1-yl)-N-(3-(2-(1-methyl-1H-pyrazol-4-yl)pyridin-4-yloxy)phenyl) benzamide] | > 10 µM | > 10 µM | > 10 µM |
| Cn1cc(-c2cc(Oc3cccc(NC(=O)c4cccc(OC(F)(F)F)c4)c3)ccn2)cn1 [Example 40, N-(3-(2-(1-Methyl-1H-pyrazol-4-yl)pyridin-4-yloxy)phenyl)-3-(trifluoromethoxy)benzamide] | > 10 µM | > 10 µM | > 10 µM |
| Cn1cc(-c2cc(Oc3cccc(NC(=O)c4cccc(C(=O)c5ccccc5)c4)c3)ccn2)cn1 [Example 50, 3-Benzoyl-N-(3-(2-(1-methyl-1H-pyrazol-4-yl)pyridin-4-yloxy)phenyl)benzamide] | > 10 µM | ≤ 10 µM | > 10 µM |
| Cn1cc(-c2cc(Oc3cccc(NC(=O)c4ccc(C#N)cc4)c3)ccn2)cn1 [Example 47, 4-Cyano-N-(3-(2-(1-methyl-1H-pyrazol-4-yl)pyridin-4-yloxy)phenyl)benzamide] | ≤ 10 µM | > 10 µM | > 10 µM |
| CCCCOc1cc(C(=O)Nc2cccc(Oc3ccnc(-c4nnco4)c3)c2)ccc1OC [Example 10, N-(3-(2-(1,3,4-Oxadiazol-2-yl)pyridin-4-yloxy)phenyl)-3-butoxy-4-methoxybenzamide] | > 10 µM | ≤ 10 µM | ≤ 10 µM |
| Cn1cc(-c2cc(Oc3cccc(NC(=O)c4cccc(-c5ccccn5)c4)c3)ccn2)cn1 [Example 32, N-(3-(2-(1-Methyl-1H-pyrazol-4-yl)pyridin-4-yloxy)phenyl)-3-(pyridin-2-yl)benzamide] | > 10 µM | > 10 µM | > 10 µM |
| Cn1cc(-c2cc(Oc3cccc(NC(=O)c4cccc(-c5cccnc5)c4)c3)ccn2)cn1 [Example 33, N-(3-(2-(1-Methyl-1H-pyrazol-4-yl)pyridin-4-yloxy)phenyl)-3-(pyridin-3-yl)benzamide] | > 10 µM | ≤ 10 µM | > 10 µM |
| Cn1cc(-c2cc(Oc3cccc(NC(=O)c4ccc(Oc5ccccc5)cc4)c3)ccn2)cn1 [Example 56, N-(3-(2-(1-Methyl-1H-pyrazol-4-yl)pyridin-4-yloxy)phenyl)-4-phenoxybenzamide] | ≤ 10 µM | ≤ 10 µM | > 10 µM |
| CCOc1cc(C(=O)Nc2cccc(Oc3ccnc(-c4nnco4)c3)c2)cc(OCC)c1OCC [Example 2, N-(3-(2-(1,3,4-Oxadiazol-2-yl)pyridin-4-yloxy)phenyl)-3,4,5-triethoxybenzamide] | > 10 µM | ≤ 10 µM | > 10 µM |
| Cn1cc(-c2cc(Oc3cccc(NC(=O)c4ccc(Cl)c(C(F)(F)F)c4)c3)ncn2)cn1 [Example 25, 4-Chloro-N-(3-(6-(1-methyl-1H-pyrazol-4-yl)pyrimidin-4-yloxy)phenyl)-3-(trifluoromethyl)benzamide] | > 10 µM | > 10 µM | > 10 µM |
| CCCCOc1ccc(C(=O)Nc2cccc(Oc3ccnc(-c4cnn(C)c4)c3)c2)cc1 [Example 76, 4-Butoxy-N-(3-(2-(1-methyl-1H-pyrazol-4-yl)pyridin-4-yloxy)phenyl)benzamide] | ≤ 10 µM | ≤ 10 µM | > 10 µM |
| Cn1cc(-c2cc(Oc3cccc(NC(=O)c4cccc5ccccc45)c3)ccn2)cn1 [Example 52, N-(3-(2-(1-Methyl-1H-pyrazol-4-yl)pyridin-4-yloxy)phenyl)-1-naphthamide] | > 10 µM | > 10 µM | > 10 µM |
| O=C(Nc1cccc(Oc2ccnc(-c3nnco3)c2)c1)c1cccc(N2CCOCC2)c1 [Example 12, 3-Morpholin-4-yl-N-[3-(2-[1,3,4]oxadiazol-2-yl-pyridin-4-yloxy)-phenyl]-benzamide] | > 10 µM | ≤ 10 µM | ≤ 10 µM |
| CCOc1cc(OCC)cc(C(=O)Nc2cccc(Oc3cc(-c4cnn(C)c4)ncn3)c2)c1 [Example 24, 3,5-Diethoxy-N-(3-(6-(1-methyl-1H-pyrazol-4-yl)pyrimidin-4-yloxy)phenyl)benzamide] | > 10 µM | > 10 µM | ≤ 10 µM |
| Cn1cc(-c2cc(Oc3cccc(NC(=O)c4cccc5c4OCC5)c3)ccn2)cn1 [Example 68, N-(3-(2-(1-Methyl-1H-pyrazol-4-yl)pyridin-4-yloxy)phenyl)-2,3-dihydrobenzofuran-7-carboxamide] | ≤ 10 µM | > 10 µM | > 10 µM |
| Cn1cc(-c2cc(Oc3cccc(NC(=O)c4ccccc4Oc4ccccc4)c3)ccn2)cn1 [Example 54, N-(3-(2-(1-Methyl-1H-pyrazol-4-yl)pyridin-4-yloxy)phenyl)-2-phenoxybenzamide] | ≤ 10 µM | > 10 µM | ≤ 10 µM |
| Cn1cc(-c2cc(Oc3cccc(NC(=O)c4cncc(-n5cccc5)c4)c3)ccn2)cn1 [Example 35, N-(3-(2-(1-Methyl-1H-pyrazol-4-yl)pyridin-4-yloxy)phenyl)-5-(1H-pyrrol-1-yl)nicotinamide] | > 10 µM | > 10 µM | > 10 µM |
| Cn1cc(-c2cc(Oc3cccc(NC(=O)c4ccc5occc5c4)c3)ccn2)cn1 [Example 66, N-(3-(2-(1-Methyl-1H-pyrazol-4-yl)pyridin-4-yloxy)phenyl)benzofuran-5-carboxamide] | > 10 µM | > 10 µM | > 10 µM |
| Cn1cc(-c2cc(Oc3cccc(NC(=O)c4ccc(-n5cccc5)cc4)c3)ccn2)cn1 [Example 59, N-(3-(2-(1-Methyl-1H-pyrazol-4-yl)pyridin-4-yloxy)phenyl)-4-(1H-pyrrol-1-yl)benzamide] | ≤ 10 µM | > 10 µM | > 10 µM |
| Cn1cc(-c2cc(Oc3cccc(NC(=O)c4cccc5[nH]ccc45)c3)ccn2)cn1 [Example 69, N-(3-(2-(1-Methyl-1H-pyrazol-4-yl)pyridin-4-yloxy)phenyl)-1H-indole-4-carboxamide] | ≤ 10 µM | ≤ 10 µM | > 10 µM |
| O=C(Nc1cccc(Oc2ccnc(-c3nnco3)c2)c1)c1cccc(N2CCCCC2)c1 [Example 11, N-[3-(2-[1,3,4]Oxadiazol-2-yl-pyridin-4-yloxy)-phenyl]-3-piperidin-1-yl-benzamide] | > 10 µM | ≤ 10 µM | > 10 µM |
